Source: patent US8741896B2, “Pyrazolopyrimidine derivatives” (Merck Patent GmbH, priority 2009, dated 2014)

Tests used:
PI3Kγ = PI3Kγ (Homo sapiens, UniProt P48736); assay: PI3 kinase inhibition bioassay (PI3Kγ); assay type: biochemical
PI3Kδ = PI3Kδ (Homo sapiens, UniProt O00329); assay: PI3 kinase inhibition bioassay (PI3Kδ); assay type: biochemical
PI3Kα = PI3Kα (Homo sapiens, UniProt P42336); assay: PI3 kinase inhibition bioassay (PI3Kα); assay type: biochemical
PI3Kβ = PI3Kβ (Homo sapiens, UniProt P42338); assay: PI3 kinase inhibition bioassay (PI3Kβ); assay type: biochemical
Chain of PI3Kβ (P42338 whole entry, species assumed): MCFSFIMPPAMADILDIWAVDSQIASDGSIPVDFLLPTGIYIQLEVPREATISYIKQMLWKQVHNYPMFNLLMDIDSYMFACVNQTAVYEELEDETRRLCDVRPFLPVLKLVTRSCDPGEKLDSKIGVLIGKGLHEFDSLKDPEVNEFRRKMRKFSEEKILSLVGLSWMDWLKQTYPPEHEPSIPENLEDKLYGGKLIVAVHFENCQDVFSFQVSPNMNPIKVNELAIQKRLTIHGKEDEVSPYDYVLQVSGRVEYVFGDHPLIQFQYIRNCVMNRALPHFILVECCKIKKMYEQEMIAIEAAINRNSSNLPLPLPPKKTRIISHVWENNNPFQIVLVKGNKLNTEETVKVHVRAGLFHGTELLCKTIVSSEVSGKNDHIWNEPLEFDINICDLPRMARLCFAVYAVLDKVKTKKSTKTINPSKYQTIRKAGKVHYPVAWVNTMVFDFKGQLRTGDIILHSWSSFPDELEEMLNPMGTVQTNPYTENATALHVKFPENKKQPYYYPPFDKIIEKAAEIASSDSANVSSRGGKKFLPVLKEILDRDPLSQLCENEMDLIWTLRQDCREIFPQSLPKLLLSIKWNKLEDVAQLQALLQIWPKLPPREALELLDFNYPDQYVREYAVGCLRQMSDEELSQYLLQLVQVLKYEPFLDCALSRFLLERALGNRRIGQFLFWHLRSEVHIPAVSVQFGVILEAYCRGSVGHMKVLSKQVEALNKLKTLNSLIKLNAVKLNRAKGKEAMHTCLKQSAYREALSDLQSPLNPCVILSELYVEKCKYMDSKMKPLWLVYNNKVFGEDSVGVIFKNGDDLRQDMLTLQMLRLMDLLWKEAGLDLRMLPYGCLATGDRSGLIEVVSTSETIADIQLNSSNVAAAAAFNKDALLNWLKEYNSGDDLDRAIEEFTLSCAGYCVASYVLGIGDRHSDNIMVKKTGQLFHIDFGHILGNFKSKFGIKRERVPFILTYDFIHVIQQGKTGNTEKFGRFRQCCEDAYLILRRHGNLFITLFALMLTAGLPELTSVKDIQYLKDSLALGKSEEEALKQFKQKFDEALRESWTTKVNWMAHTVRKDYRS
Chain of PI3Kβ (P27986 whole entry partner, species assumed): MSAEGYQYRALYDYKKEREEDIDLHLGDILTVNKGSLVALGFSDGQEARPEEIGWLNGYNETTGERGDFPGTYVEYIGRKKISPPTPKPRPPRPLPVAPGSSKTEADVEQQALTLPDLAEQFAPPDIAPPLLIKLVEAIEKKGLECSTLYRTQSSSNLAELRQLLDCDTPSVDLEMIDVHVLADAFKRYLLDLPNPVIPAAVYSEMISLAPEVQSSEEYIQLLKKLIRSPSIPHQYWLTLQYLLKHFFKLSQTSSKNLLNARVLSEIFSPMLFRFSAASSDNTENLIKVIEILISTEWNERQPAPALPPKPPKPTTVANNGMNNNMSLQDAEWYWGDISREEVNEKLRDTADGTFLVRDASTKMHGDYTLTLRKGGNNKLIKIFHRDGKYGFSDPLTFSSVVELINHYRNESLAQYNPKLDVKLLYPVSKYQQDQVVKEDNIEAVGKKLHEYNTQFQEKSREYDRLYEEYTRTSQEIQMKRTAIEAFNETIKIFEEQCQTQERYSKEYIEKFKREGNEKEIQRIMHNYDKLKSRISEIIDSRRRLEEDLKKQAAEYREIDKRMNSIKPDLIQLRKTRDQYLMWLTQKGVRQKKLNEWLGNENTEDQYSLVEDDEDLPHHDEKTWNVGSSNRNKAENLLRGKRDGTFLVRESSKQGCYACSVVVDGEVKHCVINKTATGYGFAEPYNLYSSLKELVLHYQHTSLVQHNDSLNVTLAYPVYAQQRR

CK2 protein kinase = CK2 protein kinase (Homo sapiens, UniProt P68400); conditions: cited from earlier work

Chain of PI3Kγ (P48736 whole entry, species assumed): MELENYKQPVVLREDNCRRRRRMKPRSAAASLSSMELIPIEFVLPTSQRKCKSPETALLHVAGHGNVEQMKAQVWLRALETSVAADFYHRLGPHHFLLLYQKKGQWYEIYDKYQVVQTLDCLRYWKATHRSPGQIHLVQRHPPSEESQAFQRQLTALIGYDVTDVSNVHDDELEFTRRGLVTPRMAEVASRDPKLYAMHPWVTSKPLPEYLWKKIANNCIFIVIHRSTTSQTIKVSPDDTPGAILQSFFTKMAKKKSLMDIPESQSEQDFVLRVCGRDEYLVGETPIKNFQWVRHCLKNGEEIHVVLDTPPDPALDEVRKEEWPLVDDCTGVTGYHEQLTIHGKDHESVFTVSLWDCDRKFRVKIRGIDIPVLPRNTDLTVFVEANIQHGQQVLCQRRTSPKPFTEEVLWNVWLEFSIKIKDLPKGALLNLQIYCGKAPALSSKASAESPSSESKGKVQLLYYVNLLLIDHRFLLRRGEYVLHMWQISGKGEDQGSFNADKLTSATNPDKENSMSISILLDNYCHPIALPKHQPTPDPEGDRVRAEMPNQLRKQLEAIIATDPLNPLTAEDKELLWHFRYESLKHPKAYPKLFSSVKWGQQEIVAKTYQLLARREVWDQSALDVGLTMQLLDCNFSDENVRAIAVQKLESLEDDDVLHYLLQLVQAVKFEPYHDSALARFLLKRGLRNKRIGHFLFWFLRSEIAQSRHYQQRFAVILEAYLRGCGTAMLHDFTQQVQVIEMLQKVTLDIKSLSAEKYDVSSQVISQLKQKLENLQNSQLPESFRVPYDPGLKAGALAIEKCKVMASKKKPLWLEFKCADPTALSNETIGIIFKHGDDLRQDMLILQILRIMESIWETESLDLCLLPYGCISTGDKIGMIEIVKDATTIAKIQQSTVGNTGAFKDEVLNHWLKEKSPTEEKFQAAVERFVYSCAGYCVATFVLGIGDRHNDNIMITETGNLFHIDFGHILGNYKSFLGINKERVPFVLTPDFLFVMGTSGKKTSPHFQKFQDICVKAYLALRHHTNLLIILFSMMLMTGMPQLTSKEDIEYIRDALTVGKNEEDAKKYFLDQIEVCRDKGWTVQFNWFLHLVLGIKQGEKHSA
Chain of PI3Kα (P42336 whole entry, species assumed): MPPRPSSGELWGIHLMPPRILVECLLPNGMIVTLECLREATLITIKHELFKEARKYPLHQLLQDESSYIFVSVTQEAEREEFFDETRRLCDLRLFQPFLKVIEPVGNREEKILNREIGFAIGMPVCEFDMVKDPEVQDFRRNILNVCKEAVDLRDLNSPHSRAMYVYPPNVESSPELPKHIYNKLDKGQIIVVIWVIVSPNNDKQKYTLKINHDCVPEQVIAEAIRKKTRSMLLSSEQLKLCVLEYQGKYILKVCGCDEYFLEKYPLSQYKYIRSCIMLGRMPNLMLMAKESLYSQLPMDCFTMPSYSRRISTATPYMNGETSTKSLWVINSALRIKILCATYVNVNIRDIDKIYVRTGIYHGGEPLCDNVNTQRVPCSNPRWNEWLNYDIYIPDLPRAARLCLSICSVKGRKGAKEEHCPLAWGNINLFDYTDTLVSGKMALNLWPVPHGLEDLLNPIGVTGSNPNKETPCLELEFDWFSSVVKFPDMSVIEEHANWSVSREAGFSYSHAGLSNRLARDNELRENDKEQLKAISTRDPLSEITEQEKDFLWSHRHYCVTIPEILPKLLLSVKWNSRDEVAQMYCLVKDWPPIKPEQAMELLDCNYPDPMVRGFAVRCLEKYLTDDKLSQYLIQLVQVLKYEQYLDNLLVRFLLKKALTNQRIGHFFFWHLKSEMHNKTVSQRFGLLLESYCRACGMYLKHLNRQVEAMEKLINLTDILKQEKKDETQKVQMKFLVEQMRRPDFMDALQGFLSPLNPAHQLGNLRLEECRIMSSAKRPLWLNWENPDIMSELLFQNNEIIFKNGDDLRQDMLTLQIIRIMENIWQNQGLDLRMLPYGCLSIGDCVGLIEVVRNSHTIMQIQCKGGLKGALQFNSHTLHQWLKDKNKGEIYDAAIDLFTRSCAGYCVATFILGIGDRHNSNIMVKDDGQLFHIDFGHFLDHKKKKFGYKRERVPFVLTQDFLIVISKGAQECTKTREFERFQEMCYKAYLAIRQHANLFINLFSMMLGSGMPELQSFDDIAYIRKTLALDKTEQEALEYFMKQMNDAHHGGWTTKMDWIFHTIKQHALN
Chain of PI3Kα (P27986 whole entry partner, species assumed): as the sequence (P27986 whole entry partner, species assumed) above
Chain of PI3Kδ (O00329 whole entry, species assumed): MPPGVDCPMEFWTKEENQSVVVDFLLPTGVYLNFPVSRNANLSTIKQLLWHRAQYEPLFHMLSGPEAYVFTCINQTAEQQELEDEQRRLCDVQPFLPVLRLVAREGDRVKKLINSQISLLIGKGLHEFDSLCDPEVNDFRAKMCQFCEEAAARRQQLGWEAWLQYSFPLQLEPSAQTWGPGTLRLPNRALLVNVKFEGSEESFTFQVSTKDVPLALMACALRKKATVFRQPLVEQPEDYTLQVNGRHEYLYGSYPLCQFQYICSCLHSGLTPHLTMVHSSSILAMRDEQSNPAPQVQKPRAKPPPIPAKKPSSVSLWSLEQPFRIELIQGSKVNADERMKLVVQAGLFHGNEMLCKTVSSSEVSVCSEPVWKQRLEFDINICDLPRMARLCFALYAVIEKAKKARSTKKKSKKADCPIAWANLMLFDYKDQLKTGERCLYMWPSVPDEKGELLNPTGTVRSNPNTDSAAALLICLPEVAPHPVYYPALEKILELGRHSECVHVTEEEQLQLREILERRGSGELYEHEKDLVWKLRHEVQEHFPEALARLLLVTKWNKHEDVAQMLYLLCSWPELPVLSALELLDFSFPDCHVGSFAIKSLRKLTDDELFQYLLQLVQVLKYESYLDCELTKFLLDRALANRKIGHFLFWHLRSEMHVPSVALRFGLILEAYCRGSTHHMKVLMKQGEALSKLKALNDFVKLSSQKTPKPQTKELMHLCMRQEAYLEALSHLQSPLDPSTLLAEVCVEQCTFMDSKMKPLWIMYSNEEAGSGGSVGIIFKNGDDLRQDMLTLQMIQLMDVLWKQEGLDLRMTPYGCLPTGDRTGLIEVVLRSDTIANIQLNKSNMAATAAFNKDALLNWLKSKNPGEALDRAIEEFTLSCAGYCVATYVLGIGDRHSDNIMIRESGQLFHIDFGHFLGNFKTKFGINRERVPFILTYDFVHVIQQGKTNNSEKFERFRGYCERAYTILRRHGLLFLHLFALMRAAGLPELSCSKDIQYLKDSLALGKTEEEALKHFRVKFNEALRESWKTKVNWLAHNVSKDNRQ
Chain of PI3Kδ (P27986 whole entry partner, species assumed): as the sequence (P27986 whole entry partner, species assumed) above

Compound | IC50 (PI3Kγ) [µM] | IC50 (PI3Kδ) [µM] | IC50 (PI3Kα) [µM] | IC50 (PI3Kβ) [µM] | IC50 (CK2 protein kinase) [µM]
Nc1ncc(-c2nc(N3CCOCC3)nc3c2cnn3CC(=O)N2CCOCC2)cn1 [Compound A229] | 0.1 to 10 | 0.1 to 10 | 0.1 to 10 | 0.1 to 10 | 
Cn1ncc2c(-c3cnc(N)nc3)nc(N3CCOCC3)nc21 [Compound A225, 5-(1-methyl-6-morpholin-4-yl-1H-pyrazolo[3,4-d]pyrimidin-4-yl)pyrimidin-2-ylamine] | 0.1 to 10 | 0.1 to 10 | 0.1 to 10 | 0.1 to 10 | 
O=c1cc(N2CCOCC2)oc2c(-c3ccccc3)cccc12 [LY294002] |  |  |  |  | 5 to 10
Cn1ncc2c(-c3ccc4[nH]cnc4c3)nc(N3CCOCC3)nc21 [Compound A129, 4-(1H-benzimidazol-5-yl)-1-methyl-6-morpholin-4-yl-1H-pyrazolo[3,4-d]pyrimidine] | 0.1 to 10 | 0.1 to 10 | 0.1 to 10 | 0.1 to 10 | 
Cn1ncc2c(-c3cccc(O)c3)nc(N3CCOCC3)nc21 [Compound A1, 3-(1-methyl-6-morpholin-4-yl-1H-pyrazolo[3,4-d]pyrimidin-4-yl)phenol] | 0.1 to 10 | 0.1 to 10 | 0.1 to 10 | 0.1 to 10 | 
CN1CCN(C(=O)Cn2ncc3c(-c4cnc(N)nc4)nc(N4CCOCC4)nc32)CC1 [Compound A231] | 0.1 to 10 | 0.1 to 10 | 0.1 to 10 | 0.1 to 10 | 
Cn1ncc2c(-c3ccc(N)nc3)nc(N3CCOCC3)nc21 [Compound A193, 5-(1-methyl-6-morpholin-4-yl-1H-pyrazolo[3,4-d]pyrimidin-4-yl)pyridin-2-ylamine] | 0.1 to 10 | 0.1 to 10 | 0.1 to 10 | 0.1 to 10 | 
Cn1ncc2c(-c3cccc4[nH]ccc34)nc(N3CCOCC3)nc21 [Compound A97, 4-(1H-indol-4-yl)-1-methyl-6-morpholin-4-yl-1H-pyrazolo[3,4-d]pyrimidine] | > 10 | 0.1 to 10 | 0.1 to 10 | 0.1 to 10 | 
Nc1ncc(-c2nc(N3CCOCC3)nc3c2cnn3CC(=O)N2CCCC2)cn1 [Compound A228] | 0.1 to 10 | 0.1 to 10 | 0.1 to 10 | 0.1 to 10 | 
Cn1ncc2c(-c3cccc4[nH]ncc34)nc(N3CCOCC3)nc21 [Compound A161, 4-(1H-indazol-4-yl)-1-methyl-6-morpholin-4-yl-1H-pyrazolo-[3,4-d]pyrimidine] | 0.1 to 10 | 0.1 to 10 | 0.1 to 10 | 0.1 to 10 | 
Nc1ccc(-c2nc(N3CCOCC3)nc3c2cnn3CC(=O)N2CCCC2)cn1 [Compound A196] | > 10 | 0.1 to 10 | 0.1 to 10 | > 10 | 
Cn1ncc2c(-c3cccc(CO)c3)nc(N3CCOCC3)nc21 [Compound A33, [3-(1-methyl-6-morpholin-4-yl-1H-pyrazolo[3,4-d]pyrimidin-4-yl)phenyl]methanol] | 0.1 to 10 | 0.1 to 10 | 0.1 to 10 | 0.1 to 10 | 
Cn1ncc2c(-c3ccc4cc[nH]c4c3)nc(N3CCOCC3)nc21 [Compound A65, 4-(1H-indol-6-yl)-1-methyl-6-morpholin-4-yl-1H-pyrazolo-[3,4-d]pyrimidine] | 0.1 to 10 | > 10 | > 10 | > 10 | 
